In US9888679B2, “Protection of progenitor cells and regulation of their differentiation” (Proteobioactives Pty Ltd, priority 2007, dated 2018):

What was measured:
[1] = tested on: Murine MSC line C3H10T1/2; experiment: Proteoglycan biosynthesis (35S-GAG) in 7 day pellet cultures; type: cell-based; conditions: 10 micrograms/mL; 7 day pellet culture; FIG. 15
From the text: FIG. 15. Bar graphs showing the concentration dependent effects of Pentosan Polysulfate (PPS), on the biosynthesis of Proteoglycans (PGs) as determined by the incorporation of radioactively labelled sulfate into the sulfated glycosaminoglycans (^35S-GAG) of PGs in 7 day pellet cultures of a murine progenitor cells (C3H10T1-2).
Murine Progenitor cells (cell lines C3H10T1/2 or ATDC5) purchased from RIKEN Cell Bank (Tsukuba, Japan) or human immunoselected Stro-1+ Progenitor cells (Mesoblast Ltd, Melbourne, Australia) were seeded in 2 ml screw-capped sterile centrifuge tubes and the total volume made-up to 1 ml with DMEM-High glucose medium containing 10% FBS. Progenitor cells were then centrifuged at 500 g for 10 min in a swing-out rotor at room temperature. The screw caps were loosened and the tubes placed in an incubator at 37° C., in a 5% CO2/95% air moist atmosphere. The pellets generally formed within 24 hours. Medium was changed daily in the first two days, then once every 2-3 days thereafter. […] Biosynthesis of ^35S-GAGs was determined as described for the monolayer cultures and the results expressed as ^35-S-GAGs/μg DNA.

[2] = tested on: murine ATDC5 progenitor cells; experiment: Proteoglycan biosynthesis (35S-GAG) in monolayer cultures, maintenance or differentiation media; type: cell-based
From the text: (§1) FIG. 21. A bar graph of the concentration dependent effects of rhNC4 (batch PBA-1202P) expressed by K. lactis, in the absence (maintenance media, MM) and presence of insulin (10 micrograms/mL) (differentiation media, DM), on the biosynthesis of Proteoglycans (PGs) as determined by the incorporation of radioactively labelled sulfate into the sulfated glycosaminoglycans (^35S-GAG) of PGs after 3 day culture with Murine ATDC5 progenitor cells. The data was expressed as % change relative to control cultures that contained no rhNC4. P<0.05 was statistically significant relative to control cultures.
FIG. 24. A bar graph of the concentration dependent effects of combinations of rhNC4 (batch PBA-1202P) and Pentosan Polysulfate (PPS) on the biosynthesis of 35S-PGs by monolayer cultures of Murine ATDC5 progenitor cells. Data is expressed relative to control (maintenance media, MM) which was taken as 100%.
as §1, with “31.” for “21.”
FIG. 32. A bar graph of the concentration dependent effects of Pentosan Polysulfate (PPS), in the presence of insulin (10 micrograms/mL), on the biosynthesis of Proteoglycans PGs) as determined by the incorporation of radioactively labelled sulfate into the sulfated glycosaminoglycans (^35S-GAG) of PGs after 3 day culture with Murine ATDC5 progenitor cells. The data was expressed as ^35S-GAG radioactivity as counts per minute (CPM) and decays per minute (DPM) relative to control cultures that contained no PPS. P<0.05 was statistically significant relative to control cultures.
Murine Progenitor cells (cell lines C3H10T1/2 or ATDC5) purchased from RIKEN Cell Bank (Tsukuba, Japan) or human immunoselected Stro-1+ Progenitor cells (Mesoblast Ltd, Melbourne, Australia) were seeded into 50 mL plastic culture flasks containing 1:1 high glucose DMEM/Ham's F-12 medium (Invitrogen) supplemented with 10% FBS (Sigma) and incubated at 37° C., in 5% CO2. […] The experiments were generally terminated after 48 hours incubation when proteoglycan biosynthesis was determined by measuring the incorporation of ^35SO4 into the glycosaminoglycans (^35S-GAGs) as described below.
The data was expressed as % change relative to control cultures that contained no rhNC4. […]

Substance: pentosan polysulfate [PPS]
- increase of proteoglycan synthesis, of the control values [1]: more than 80%
- PG synthesis ([2]; PPS in the presence of insulin (10 micrograms/mL), 3 day culture, FIG. 32): concentration dependent stimulation of PG synthesis
- biosynthesis of 35S-PGs ([2]; PPS, monolayer, FIG. 24): effect of PPS increases with concentration
